Active and inactive are the calls of the source.
Experiments:
[1] = target: T1, Fatty acid synthase (Homo sapiens, UniProt P49327); assay: inhibition of human FAS-TE enzyme activity – biochemical, endpoint fluorescence intensity, uHTS hits, dose response (AID 624327); format: functional;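 also: fluorescence from hydrolysis of an O-methyl fluorescein acyl ester substrate by the enzyme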
[2] = target: T1, Fatty acid synthase; assay: inhibition of human FAS-TE enzyme activity – biochemical, kinetic fluorescence intensity, dose response (AID 624326); format: functional;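 also: rate of fluorescence rise from hydrolysis of a fluorogenic O-methyl fluorescein ester substrate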
[3] = cells; format: functional, cell-based
[4] = cells; format: functional, cell-based; remark: listed apart in the source
[5] = target: T2, Corticotropin-releasing factor receptor 2/Corticotropin-releasing factor-binding protein (Homo sapiens, UniProt P24387+Q13324); assay: Dose Response confirmation of uHTS hits for small molecule antagonists of the CRF-binding protein and CRF-R2 receptor complex.; format: functional; details: read-out: IC50_Mean
T2 sequence (Q13324 whole entry): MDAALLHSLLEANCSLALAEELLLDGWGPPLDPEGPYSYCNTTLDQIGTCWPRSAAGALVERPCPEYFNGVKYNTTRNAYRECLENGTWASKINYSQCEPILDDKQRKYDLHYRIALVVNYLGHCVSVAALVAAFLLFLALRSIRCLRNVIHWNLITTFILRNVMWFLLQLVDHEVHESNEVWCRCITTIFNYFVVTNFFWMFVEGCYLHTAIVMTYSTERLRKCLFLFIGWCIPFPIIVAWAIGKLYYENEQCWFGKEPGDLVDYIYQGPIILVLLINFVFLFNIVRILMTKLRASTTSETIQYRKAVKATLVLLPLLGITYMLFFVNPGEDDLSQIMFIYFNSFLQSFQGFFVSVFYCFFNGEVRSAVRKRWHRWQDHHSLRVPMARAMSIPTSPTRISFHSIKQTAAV
T2 sequence (P24387 whole entry): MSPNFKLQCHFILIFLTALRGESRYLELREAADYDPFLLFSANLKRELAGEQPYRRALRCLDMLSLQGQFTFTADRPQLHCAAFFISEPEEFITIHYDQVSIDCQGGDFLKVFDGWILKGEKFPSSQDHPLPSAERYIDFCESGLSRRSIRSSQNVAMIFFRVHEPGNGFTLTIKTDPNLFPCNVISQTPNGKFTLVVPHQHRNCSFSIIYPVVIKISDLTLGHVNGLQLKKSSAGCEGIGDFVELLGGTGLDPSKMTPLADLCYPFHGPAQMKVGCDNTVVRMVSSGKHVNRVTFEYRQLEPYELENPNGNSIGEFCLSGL

[6] = target: T2, Corticotropin-releasing factor receptor 2/Corticotropin-releasing factor-binding protein; assay: activators of CRF receptor 2 with binding protein – uHTS hits, confirmation (AID 602473); format: functional; details: read-out: EC50_Mean
[7] = blockers of CRF-binding protein–CRF-R2 complex – cell-based, uHTS hits, 384-well, dose response (AID 651639); format: functional, Homo sapiens; details: read-out: IC50_Mean
[8] = Luminescence Cell-Based Dose Retest to Confirm Inhibitors of Cancer Stem Cells. [Related pubchem assays (depositor defined):AID2717, AID2721]; format: functional; details: Homo sapiens
[9] = system: BJ; assay: BJ-TERT fibroblast viability loss – cell-based, RAS-independent, luminescence, dose response (AID 1933); format: functional; details: Homo sapiens
[10] = system: BJ; assay: cells; format: functional, cell-based; details: Homo sapiens
[11] = system: BJ; assay: BJ-TERT-LT-ST fibroblast viability loss – cell-based, RAS-independent, luminescence, dose response (AID 1935); format: functional; details: Homo sapiens;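 also: BJ fibroblasts immortalized with TERT plus LT and ST oncogenes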
[12] = DRD fibroblast viability loss – cell-based, non-viral oncogenic, luminescence, dose response (AID 1934); format: functional; details: Homo sapiens
[13] = target: T3, Heat shock factor protein 1 (Mus musculus, UniProt P38532); assay: enhancement of HSF1-driven luciferase signal – cell-based, NIH3T3, luminescence, dose retest, confirmation (AID 435004); format: functional;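 also: stress induced by proteasome inhibitor MG132 added 30 min after compound; luciferase reporter driven by HSF1 response element in NIH3T3 cells; actives raise luminescence as potentiators of the MG132 stress response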
T3 sequence (P38532 whole entry): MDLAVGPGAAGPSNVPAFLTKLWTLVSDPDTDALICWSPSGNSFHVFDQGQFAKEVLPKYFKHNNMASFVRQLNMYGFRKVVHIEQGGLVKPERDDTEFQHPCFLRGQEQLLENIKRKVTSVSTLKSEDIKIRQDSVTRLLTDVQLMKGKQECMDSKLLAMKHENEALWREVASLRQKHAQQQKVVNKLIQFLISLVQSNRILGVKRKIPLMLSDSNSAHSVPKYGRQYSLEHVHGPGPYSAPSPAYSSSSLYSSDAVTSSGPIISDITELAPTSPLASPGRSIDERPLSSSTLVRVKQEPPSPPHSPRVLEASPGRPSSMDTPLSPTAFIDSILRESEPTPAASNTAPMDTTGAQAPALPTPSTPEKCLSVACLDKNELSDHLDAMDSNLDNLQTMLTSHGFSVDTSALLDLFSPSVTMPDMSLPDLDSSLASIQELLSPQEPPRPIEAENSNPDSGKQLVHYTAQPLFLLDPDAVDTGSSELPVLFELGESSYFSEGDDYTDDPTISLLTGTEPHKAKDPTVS

[14] = target: T4, Replicative DNA helicase DnaB (Mycobacterium tuberculosis, UniProt P9WMR3); assay: DnaB intein splicing inhibitors, dose response, biochemical, cell-free fluorescence (AID 449749); format: functional
T4 sequence (P9WMR3 whole entry): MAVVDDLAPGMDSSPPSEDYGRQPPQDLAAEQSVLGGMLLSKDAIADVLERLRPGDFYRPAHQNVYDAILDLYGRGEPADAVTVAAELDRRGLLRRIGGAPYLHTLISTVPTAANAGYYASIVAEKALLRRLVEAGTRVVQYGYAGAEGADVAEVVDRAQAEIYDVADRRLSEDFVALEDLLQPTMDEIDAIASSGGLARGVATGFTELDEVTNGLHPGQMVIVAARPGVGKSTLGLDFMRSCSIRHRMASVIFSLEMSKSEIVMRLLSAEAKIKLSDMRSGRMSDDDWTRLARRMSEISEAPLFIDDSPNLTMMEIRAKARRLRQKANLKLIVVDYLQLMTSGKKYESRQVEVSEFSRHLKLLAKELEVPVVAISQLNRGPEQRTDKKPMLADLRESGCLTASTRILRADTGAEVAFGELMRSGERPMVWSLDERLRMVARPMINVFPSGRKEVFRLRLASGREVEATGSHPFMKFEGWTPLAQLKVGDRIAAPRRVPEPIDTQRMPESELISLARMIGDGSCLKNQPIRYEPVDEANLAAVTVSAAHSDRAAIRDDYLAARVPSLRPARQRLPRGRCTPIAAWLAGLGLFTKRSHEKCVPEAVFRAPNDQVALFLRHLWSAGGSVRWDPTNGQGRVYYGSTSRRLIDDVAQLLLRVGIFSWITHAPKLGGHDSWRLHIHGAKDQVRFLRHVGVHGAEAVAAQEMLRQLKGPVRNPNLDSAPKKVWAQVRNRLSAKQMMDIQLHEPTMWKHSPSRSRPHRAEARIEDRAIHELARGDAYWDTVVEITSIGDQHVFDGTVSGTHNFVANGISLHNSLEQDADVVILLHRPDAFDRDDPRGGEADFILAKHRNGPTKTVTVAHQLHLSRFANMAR

[15] = target: T5, Protein RecA (Mycobacterium tuberculosis, UniProt P9WHJ3); assay: Fluorescence Cell-Free Homogeneous Dose Retest to Identify Inhibitors of RecA-Intein Splicing Activity. [Related pubchem assays (depositor defined):AID2097, AID2223, AID489010, AID492950]; format: functional
T5 sequence (P9WHJ3 whole entry): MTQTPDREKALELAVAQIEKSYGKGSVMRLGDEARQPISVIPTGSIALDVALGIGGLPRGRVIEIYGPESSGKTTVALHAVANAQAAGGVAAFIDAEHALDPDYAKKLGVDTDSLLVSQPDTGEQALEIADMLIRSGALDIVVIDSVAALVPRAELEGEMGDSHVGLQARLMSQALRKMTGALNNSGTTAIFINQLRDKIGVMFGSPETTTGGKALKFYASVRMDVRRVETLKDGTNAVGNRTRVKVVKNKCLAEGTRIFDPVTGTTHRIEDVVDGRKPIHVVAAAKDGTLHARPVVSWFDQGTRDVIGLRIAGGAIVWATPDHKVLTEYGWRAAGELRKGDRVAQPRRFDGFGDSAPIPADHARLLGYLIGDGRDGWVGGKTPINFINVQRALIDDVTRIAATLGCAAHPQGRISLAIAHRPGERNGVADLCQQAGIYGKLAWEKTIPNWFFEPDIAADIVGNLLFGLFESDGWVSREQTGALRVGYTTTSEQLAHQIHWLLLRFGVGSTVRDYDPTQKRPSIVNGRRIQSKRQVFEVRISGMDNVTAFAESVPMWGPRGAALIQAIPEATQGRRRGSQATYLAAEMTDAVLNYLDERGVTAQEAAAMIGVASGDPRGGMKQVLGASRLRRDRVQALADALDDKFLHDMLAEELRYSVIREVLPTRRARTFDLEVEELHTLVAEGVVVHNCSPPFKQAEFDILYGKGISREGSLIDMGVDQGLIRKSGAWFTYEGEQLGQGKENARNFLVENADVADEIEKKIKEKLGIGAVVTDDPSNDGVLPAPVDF

[16] = Luminescence Cell-Based Dose Confirmation HTS to Identify Activators of 5'UTR Stem-Loop Driven Alpha-Synuclein mRNA Translation in H4 Neuroglioblastoma Cells. [Related pubchem assays: 1829 (Project Summary), 1814 (Primary HTS)]; format: functional
[17] = Luminescence Cell-Based Dose Response HTS to Identify Activators of Luciferase Translation or Activity in H4 […] Cells. [Related pubchem assays: 1829 (Project Summary), 1814 (Primary HTS)]; format: functional
[18] = system: H4; assay: Luminescence Cell-Based Dose Response HTS to Identify Activators of 5'UTR Stem-Loop Driven Prion Protein mRNA Translation in H4 Neuroglioblastoma Cells. [Related pubchem assays: 1829 (Project Summary), 1814 (Primary HTS)]; format: functional; details: Homo sapiens
[19] = viability of uninfected HEp-2 cells – cell-based, HTS, cytotoxicity control for RSV inhibitor project, dose response (AID 2410); format: functional; details: human respiratory syncytial virus

T1 sequence (P49327 whole entry): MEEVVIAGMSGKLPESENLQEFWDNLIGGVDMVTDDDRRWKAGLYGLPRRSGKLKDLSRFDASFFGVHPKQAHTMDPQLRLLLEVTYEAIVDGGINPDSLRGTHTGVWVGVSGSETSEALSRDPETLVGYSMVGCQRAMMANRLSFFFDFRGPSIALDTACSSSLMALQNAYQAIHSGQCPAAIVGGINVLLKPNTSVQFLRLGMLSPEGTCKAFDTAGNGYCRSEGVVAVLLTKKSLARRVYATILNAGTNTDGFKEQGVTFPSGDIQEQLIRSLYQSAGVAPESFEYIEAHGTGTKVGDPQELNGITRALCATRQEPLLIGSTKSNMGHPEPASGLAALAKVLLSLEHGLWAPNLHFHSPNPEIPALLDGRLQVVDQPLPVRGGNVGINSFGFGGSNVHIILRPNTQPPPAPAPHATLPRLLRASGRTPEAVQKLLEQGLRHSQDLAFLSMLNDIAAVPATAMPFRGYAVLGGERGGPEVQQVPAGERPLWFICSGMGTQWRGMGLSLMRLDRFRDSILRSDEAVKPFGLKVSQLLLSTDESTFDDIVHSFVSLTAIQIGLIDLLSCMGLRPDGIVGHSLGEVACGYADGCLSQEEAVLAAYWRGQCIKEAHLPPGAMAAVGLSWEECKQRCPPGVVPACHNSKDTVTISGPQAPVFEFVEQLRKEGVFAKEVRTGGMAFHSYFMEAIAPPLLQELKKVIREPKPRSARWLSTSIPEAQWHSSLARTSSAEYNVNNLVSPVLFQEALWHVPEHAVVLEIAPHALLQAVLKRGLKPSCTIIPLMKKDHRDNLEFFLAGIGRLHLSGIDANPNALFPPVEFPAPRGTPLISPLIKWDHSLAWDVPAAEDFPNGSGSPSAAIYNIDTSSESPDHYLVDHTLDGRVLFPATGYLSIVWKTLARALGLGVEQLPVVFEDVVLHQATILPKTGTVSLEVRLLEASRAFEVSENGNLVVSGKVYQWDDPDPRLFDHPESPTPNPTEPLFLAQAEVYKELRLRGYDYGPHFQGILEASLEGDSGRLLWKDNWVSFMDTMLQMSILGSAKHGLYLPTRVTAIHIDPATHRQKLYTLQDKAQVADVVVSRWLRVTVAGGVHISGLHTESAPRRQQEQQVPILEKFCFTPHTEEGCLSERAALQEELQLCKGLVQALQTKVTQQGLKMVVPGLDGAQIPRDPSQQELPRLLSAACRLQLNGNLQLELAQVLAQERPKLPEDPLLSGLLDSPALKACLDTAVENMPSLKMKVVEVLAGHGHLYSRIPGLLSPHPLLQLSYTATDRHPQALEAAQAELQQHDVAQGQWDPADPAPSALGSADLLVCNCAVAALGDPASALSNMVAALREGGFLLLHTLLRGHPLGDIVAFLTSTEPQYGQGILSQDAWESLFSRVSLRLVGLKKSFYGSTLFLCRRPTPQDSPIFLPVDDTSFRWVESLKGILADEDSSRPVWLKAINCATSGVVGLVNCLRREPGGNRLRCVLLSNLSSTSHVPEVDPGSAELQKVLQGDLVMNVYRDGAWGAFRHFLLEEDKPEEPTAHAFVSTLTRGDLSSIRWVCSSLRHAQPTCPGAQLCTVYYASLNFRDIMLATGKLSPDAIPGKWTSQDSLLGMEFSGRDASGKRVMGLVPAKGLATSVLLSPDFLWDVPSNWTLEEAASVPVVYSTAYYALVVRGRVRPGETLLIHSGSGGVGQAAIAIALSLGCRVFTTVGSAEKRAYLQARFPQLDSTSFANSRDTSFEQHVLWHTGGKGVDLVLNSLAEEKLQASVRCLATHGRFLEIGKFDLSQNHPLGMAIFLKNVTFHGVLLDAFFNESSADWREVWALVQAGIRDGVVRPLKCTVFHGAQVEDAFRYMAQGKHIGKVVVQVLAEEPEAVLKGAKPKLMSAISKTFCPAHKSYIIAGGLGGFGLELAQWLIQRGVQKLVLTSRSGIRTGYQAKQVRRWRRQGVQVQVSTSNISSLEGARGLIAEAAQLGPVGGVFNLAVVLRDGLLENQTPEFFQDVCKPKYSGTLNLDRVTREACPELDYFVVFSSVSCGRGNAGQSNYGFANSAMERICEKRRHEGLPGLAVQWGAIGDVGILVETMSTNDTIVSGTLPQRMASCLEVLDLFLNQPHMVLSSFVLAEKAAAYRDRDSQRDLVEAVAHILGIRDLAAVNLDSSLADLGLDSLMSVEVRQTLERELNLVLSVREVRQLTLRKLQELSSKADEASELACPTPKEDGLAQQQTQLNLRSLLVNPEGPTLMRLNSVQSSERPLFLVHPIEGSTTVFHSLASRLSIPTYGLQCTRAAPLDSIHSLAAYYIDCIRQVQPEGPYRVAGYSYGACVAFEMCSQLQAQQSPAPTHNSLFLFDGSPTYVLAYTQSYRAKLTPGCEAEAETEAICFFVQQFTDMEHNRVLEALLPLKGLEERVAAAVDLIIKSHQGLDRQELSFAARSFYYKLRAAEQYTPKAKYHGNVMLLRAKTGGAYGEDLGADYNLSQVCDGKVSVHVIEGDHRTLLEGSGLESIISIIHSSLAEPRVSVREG

O=C(OCc1cccc(C(F)(F)F)c1)c1cc([N+](=O)[O-])ccc1N1CCOCC1
IC50 [1]: 7.84 µM (active)
IC50 [2]: 7.24 µM (active)

CC(C)Sc1nc(N)c2c3c(sc2n1)CN(C)CC3
EC50 [3]: > 350 µM (not active)
EC50 [4]: > 350 µM (not active)

COC(=O)C1=CN(Cc2ccc(OC)cc2)C=C(C(=O)OC)C1c1cccs1
IC50 [5]: 4.21 µM (active)
EC50 [6]: > 53 µM (inactive)
IC50 [7]: > 20 µM (inactive)

O=C(/C=C/c1cc2ccccc2o1)c1ccccc1O
AC50 [8]: 10.6 µM (active)

COc1ccc(NC(=O)CCCCC(=O)Nc2ccc(OC)cc2OC)c(OC)c1
IC50 [5]: < 0.368 µM (active)
EC50 [6]: > 53 µM (inactive)
IC50 [7]: > 20 µM (inactive)

CCOc1ccc(CCNC(=O)COC(=O)Cn2nc(C)c([N+](=O)[O-])c2C)cc1OCC
EC50 [3]: > 350 µM (not active)
EC50 [4]: > 350 µM (not active)

COC(=O)c1cc(S(=O)(=O)NCc2ccccc2OC)cn1C
EC50 [3]: > 350 µM (not active)
EC50 [4]: > 350 µM (not active)

COc1cc(NC(=O)CSc2nc3ccccc3n2-c2ccccc2)c(C)cc1[N+](=O)[O-]
EC50 [9]: > 150 µM (not active)
EC50 [10]: > 150 µM (not active)
EC50 [11]: > 150 µM (inconclusive)
EC50 [12]: > 150 µM (not active)
IC50 [5]: > 47.1 µM (inactive)
EC50 [6]: > 53 µM (inactive)

CC1CCc2nc(NC(=O)CN3CCN(c4ccc(F)cc4)CC3)sc2C1 (centres undefined)
IC50 [1]: 2.04 µM (active)
IC50 [2]: 1.81 µM (active)

Cc1ccc(NC(=O)c2cc([N+](=O)[O-])ccc2N2CCOCC2)cc1C
IC50 [1]: 4.24 µM (active)
IC50 [2]: 2.81 µM (active)

C=CCC[C@@H](Cc1ccc(F)cc1)C(=O)OC[C@H](Cc1c[nH]c2ccccc12)NC(=O)[C@H](CC=C)CC(=O)NCCO
IC50 [1]: 10.9 µM (active)
IC50 [2]: 6.03 µM (active)

O=C(N/C(=C/C=C/c1ccccc1)C(=O)N1CCCCC1)c1ccc([N+](=O)[O-])cc1
IC50 [1]: 0.295 µM (active)
IC50 [2]: 0.258 µM (active)

COc1ccc2c(c1)C(=O)N1[C@H]3c4cc(Cl)ccc4OC[C@@H]3[C@H](c3ccccc3)[C@]1(C)C(=O)N2
IC50 [1]: 16.5 µM (active)
IC50 [2]: 18.8 µM (active)

COc1ccc(C2N(Cc3ccccc3)CC(=O)N2/N=C(\C)c2ccccc2)cc1 (centres undefined)
IC50 [5]: 13.8 µM (active)
EC50 [6]: > 53 µM (inactive)
IC50 [7]: 4.93 µM (active)

Cc1ccc(NC(=O)Cn2ncn3c(cc4ccccc43)c2=O)cc1F
IC50 [5]: 9.94 µM (active)
EC50 [6]: > 53 µM (inactive)
IC50 [7]: 7.27 µM (active)

Cc1ccc(-c2cc(NC(=O)CCl)n(-c3ccccc3)n2)cc1
AC50 [8]: 5.24 µM (active)
EC50 [13]: 9.36 µM (active)
AC50 [14]: 16.2 µM (active)
EC50 [15]: 5.68 µM (active)

Cc1cccc(-n2ncc3c(NCc4ccco4)ncnc32)c1
EC50 [16]: 4.04 µM (active)
EC50 [17]: 49.1 µM (active)
EC50 [3]: > 350 µM (not active)
EC50 [18]: 64.9 µM (active)
EC50 [4]: 88.7 µM (active)

O=[N+]([O-])c1cccc(C2NCC(c3ccccc3Cl)c3c2[nH]c2ccccc32)c1 (centres undefined)
AC50 [8]: 2.69 µM (active)

CCOc1ccc(N2CC(C(=O)Nc3ccccc3C(=O)NC3CC3)CC2=O)cc1 (centres undefined)
EC50 [3]: > 350 µM (not active)
EC50 [4]: > 350 µM (not active)

Cc1onc(-c2ccccc2)c1C(=O)Nc1ccc(S(=O)(=O)N2CCCC2)cc1
EC50 [3]: > 350 µM (not active)
EC50 [4]: > 350 µM (not active)

CCCCCCCCCCCC(=O)NC(Cc1ccc(OC)c([N+](=O)[O-])c1)C(=O)O (centres undefined)
IC50 [5]: 11.6 µM (active)
EC50 [6]: > 53 µM (inactive)
IC50 [7]: > 20 µM (inactive)

CCOC(=O)C(CCCCOc1ccc([N+](=O)[O-])cc1)C(=O)OCC
IC50 [5]: 25.9 µM (active)
EC50 [6]: > 53 µM (inactive)
IC50 [7]: > 20 µM (inactive)

O=C(/C=C/c1ccc(Cl)c([N+](=O)[O-])c1)Nc1cccc(NC(=O)c2ccco2)c1
CC50 [19]: 21.2 µM (active)
AC50 [8]: 2.56 µM (active)

— ChEMBL document CHEMBL1201862, “PubChem BioAssay data set” (2004)
